Results: paper PMC11645656, “MRGPRX4 mediates phospho-drug associated pruritus in a humanized mouse model” (Science translational medicine, 2024)
Values joined by “and” are separate entries in the source; they are usually repeats but may differ in a detail not shown here. Equal entries are not always repeated. Where two headings read alike, the source gives them in different places.

Legend:
[1] = system: mock; experiment: Calcium mobilization assay (FLIPR), mock-transfected control cells (Fig. 3E and 3F); type: cell-based
[2] = target: T1, MRGPRX4 R86A (Homo sapiens, UniProt Q96LA9, L83S/R86A); experiment: Calcium mobilization assay (FLIPR), MRGPRX4 R86A mutant; type: cell-based
T1 construct: expressed in transfected cells; host or cells: HEK293T, transient
Source text: Fig. 3. […] (A) Cryo-EM density map of MRGPRX4-Gq in complex with fospropofol. (B) The density map of fospropofol and R82 of MRGPRX4. (C and D) Key molecular interactions between fospropofol and the hydrophilic (C) and hydrophobic (D) part of the agonist binding pocket of MRGPRX4. Amino acid residues interacting with fospropofol are shown as sticks. Hydrogen bond is shown as cyan dashed lines. […] Data are from at least three independent experiments, each performed in triplicate, and reported as the mean ± SEM. (E) and (F) were collected from the same sets of experiments.
To generate murine Mrgprs expressing cells, HEK293T cells (ATCC) were seeded on poly-D-lysine coated 96 well plate at 25,000 cells per well one day prior to transfection. HEK293T cells were transiently co-transfected with the mammalian expression plasmids carrying cDNA encoding the murine Mrgpr genes and plasmid inserted with cDNA encoding murine α-subunit of the heterotrimeric G15 protein (Gα15) in triplicates using Lipofectamine LTX reagents (Thermo Scientific). To generate WT, S83L, and alanine mutant MRGPRX4-expressing cells, HEK293T cells were seeded on poly-D-lysine coated 384 well plate at 12,000 cells per well one day prior to transfection. […]

[3] = cited from earlier work
[4] = target: MRGPRX4 WT (S83) (Homo sapiens, UniProt Q96LA9, L83S); experiment: Calcium mobilization assay (FLIPR), WT (S83) MRGPRX4 transiently expressed in HEK293T cells; type: cell-based; design: expressed in transfected cells; host or cells: HEK293T, transient; conditions: for EC50: WT (S83), Fig. 4E, unit not in the head, taken from Concentration (M) of the sheet and pEC50 [M] of Fig. 4E; for Calcium mobilization response (Fig. 4D dose-response) / calcium mobilization response (Fig. 3E and 3F dose-response): WT; for Calcium mobilization response (Fig. 4D dose-response): each cell one replicate; for Potency at S83- vs L83-MRGPRX4: calcium mobilization, compared with S83L (A17)
Source text: Fig. 4. […] Hydrogen bond is shown as cyan dashed lines. […] Data are from three independent experiments, performed in triplicate. (E) pEC50 plots of various agonists toward S83- and L83-MRGPRX4 through calcium mobilization assay. […] Each data point represents an independent experiment, performed in triplicate. The extra sum-of-square F test was used to examine the difference in EC50 values. One-sided t-test was used for nateglinide. *p< 0.05, **p< 0.01 and ***p< 0.001. ns = no statistical significance. Both (D) and (E) are reported as the mean ± SEM. N.D.= no detectable response ≤ 100 μM.
HEK293 cells and MRGPRX4 stably expressed HEK293 cells were seeded in 100 μl culture media on 96-well plates at a density of 40,000 cells per well and incubated overnight. The next day, the media were replaced with a dye-loading solution from the FLIPR Calcium 5 assay kit (Molecular Devices), diluted in Hank's Balanced Salt Solution (HBSS) with 20 mM HEPES, pH 7.4. After 1 h of incubation at 37°C, cells were allowed to recover for 10 min in the dark at room temperature prior to performing intracellular calcium mobilization assay in a Flexstation-3 instrument with SoftMax®Pro 7.1 software (Molecular Devices). Serial concentrations of tested drugs were prepared in HBSS/HEPES solution at 3X concentration. […] Compounds were tested in triplicates and the signals were averaged. Responses were determined by subtracting the minimum signal (at the baseline before adding the drug) from the maximum signal (obtained after drug stimulation). Four-parameter logistic (4PL) curve fit was used to plot the dose-response curves. […] Both dose-response curve fitting and EC50s calculation are computed with GraphPad Prism software (version: 6.o or above).
To generate murine Mrgprs expressing cells, HEK293T cells (ATCC) were seeded on poly-D-lysine coated 96 well plate at 25,000 cells per well one day prior to transfection. HEK293T cells were transiently co-transfected with the mammalian expression plasmids carrying cDNA encoding the murine Mrgpr genes and plasmid inserted with cDNA encoding murine α-subunit of the heterotrimeric G15 protein (Gα15) in triplicates using Lipofectamine LTX reagents (Thermo Scientific). To generate WT, S83L, and alanine mutant MRGPRX4-expressing cells, HEK293T cells were seeded on poly-D-lysine coated 384 well plate at 12,000 cells per well one day prior to transfection. Mammalian expression plasmids pLX304 (vector from Addgene) carrying different MRGPRX4 coding sequences were transiently transfected into HEK293T cells in triplicates with Lipofectamine LTX reagents (Thermo Scientific). Intracellular calcium mobilization assays were performed after one day of transfection. Murine Mrgprs tested include Mrgpra1, Mrgpra2a, Mrgpra2b, Mrgpra3, Mrgpra4, Mrgpra6, Mrgpra9, Mrgpra10, Mrgpra11, Mrgpra12, Mrgpra14, Mrgprb5, Mrgprb6, Mrgprb10, Mrgprb11, and Mrgprc11. WT and mutant MRGPRX4 constructs tested include WT, S83L, R82A, R86A, R95A, W158A, Y250A, and Y254A.

[5] = system: WT NP1-3 DRG neurons; experiment: GCaMP6s calcium imaging of NP1-3 DRG neurons from Pirt-Cre; Rosa-lsl-GCaMP6s mice; type: cell-based, mouse; conditions: 10 µM
Description: Murine DRGs (from both male and female) were harvested from all spinal segments and digested in dispase (5 mg/ml) / type I collagenase (1 mg/ml) enzyme mix at 37 °C for an hour. Enzyme mix was replaced with complete DH10 media (90% DMEM/F12, 10% FBS, penicillin (100 units/ml), and streptomycin (100 μg/ml)) and gently triturated with 1 ml pipette tip until the media turned cloudy without visible tissue chunks. Dissociated tissues were filtered through a 70 μm filter and spun down 1250 rpm for 5 min at RT. Supernatant was removed and the cell pellet was resuspended in complete DH10 media. Cell suspension was then added on top of poly-D-lysine- and laminin-coated coverslips and sat for 1–2 h at 37°C. Complete DH10 media supplemented with NGF (50 ng/ml) was then added into the vessel. Neurons were allowed to recover overnight at 37°C for the next-day calcium imaging experiment.
Calcium imaging data was collected with a Nikon Eclipse TE 200 microscope. Time series GCaMP6 fluorescence intensity was acquired through the FITC/GFP channel. […] Neurons with GCaMP6 signal rose above 50% of the baseline intensity after compound application were counted as positive responders and the percentage of responding neurons was calculated. […]
(top) and individual (bottom) calcium activity, measured by fluorescence intensity normaliz ed to […]
activity from the recorded neurons is shown in heatmap. […]

MRGPRX4 WT (S83), sequence (Q96LA9 whole entry L83S): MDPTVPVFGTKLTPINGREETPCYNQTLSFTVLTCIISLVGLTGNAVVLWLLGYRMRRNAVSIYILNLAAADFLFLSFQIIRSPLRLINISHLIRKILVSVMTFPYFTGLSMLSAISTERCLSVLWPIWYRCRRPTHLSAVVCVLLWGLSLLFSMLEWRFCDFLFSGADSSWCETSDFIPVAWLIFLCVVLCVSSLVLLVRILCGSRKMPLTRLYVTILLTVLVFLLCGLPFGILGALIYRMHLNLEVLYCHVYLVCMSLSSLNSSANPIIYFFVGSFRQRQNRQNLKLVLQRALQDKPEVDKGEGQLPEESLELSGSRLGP
T1 sequence (Q96LA9 whole entry L83S/R86A): as the sequence (Q96LA9 whole entry L83S) above, with R86A counted along it

O=C1NC(c2ccccc2)(c2ccccc2)C(=O)N1COP(=O)(O)O [Fosphenytoin]
Calcium mobilization response, dose-response replicate data (Fig. 3E and 3F) ([1]; concentration 188 pM): 2.751 and 6.052 and -2.532
Calcium mobilization response, dose-response replicate data (Fig. 3E and 3F) ([1]; concentration 565 pM): 4.071 and -5.503 and 12.3245
Calcium mobilization response, dose-response replicate data (Fig. 3E and 3F) ([1]; concentration 1.69e-9 M): 4.071 and 3.081 and -1.212
Calcium mobilization response, dose-response replicate data (Fig. 3E and 3F) ([1]; concentration 5.08e-9 M): 3.411 and -2.202
Calcium mobilization response, dose-response replicate data (Fig. 3E and 3F) ([1]; concentration 1.52e-8 M): -1.542 and -1.212 and -3.853
Calcium mobilization response, dose-response replicate data (Fig. 3E and 3F) ([1]; concentration 4.57e-8 M): -2.532 and -6.494 and 5.722
Calcium mobilization response, dose-response replicate data (Fig. 3E and 3F) ([1]; concentration 1.37e-7 M): -8.474 and 2.091 and 3.411
Calcium mobilization response, dose-response replicate data (Fig. 3E and 3F) ([1]; concentration 4.12e-7 M): -2.202 and -3.522 and -0.2212
Calcium mobilization response, dose-response replicate data (Fig. 3E and 3F) ([1]; concentration 1.23e-6 M): -8.474 and -1.212 and -3.1923
Calcium mobilization response, dose-response replicate data (Fig. 3E and 3F) ([1]; concentration 3.7e-6 M): -6.824 and 3.081 and 0.4401
Calcium mobilization response, dose-response replicate data (Fig. 3E and 3F) ([1]; concentration 1.11e-5 M): -13.7563 and -1.212 and 1.1003
Calcium mobilization response, dose-response replicate data (Fig. 3E and 3F) ([1]; concentration 3.33e-5 M): -14.4165 and -16.3972 and -5.173
Calcium mobilization response, dose-response replicate data (Fig. 3E and 3F) ([1]; concentration 0.0001 M): -29.6022 and -24.6503 and -24.9805
Calcium mobilization response at alanine mutant R86A vs WT [2]: either greatly attenuated or abolished
Solubility relative to parent drug ([3]; vs phenytoin): 4500 fold
EC50 ([4]; read-out: EC50s (each well represents individual experiment)): 7.21e-07 M and 5.46e-06 M and 1.46e-06 M
Calcium mobilization response (Fig. 4D dose-response) ([4]; 5.65e-9 M): -11.5543
calcium mobilization response (Fig. 3E and 3F dose-response) ([4]; 4.12e-6 M): 76.9188
Calcium mobilization response (Fig. 4D dose-response) ([4]; 4.12e-6 M): 76.9188
calcium mobilization response (Fig. 3E and 3F dose-response) ([4]; 1.23e-5 M): 82.4819
Potency at S83- vs L83-MRGPRX4 [4]: improved potency at S83-MRGPRX4
Activation of NP1–3 neuron populations [5]: few neurons were activated

CC(C)c1cccc(C(C)C)c1OCOP(=O)(O)O [Fospropofol]
Calcium mobilization response at alanine mutant R86A vs WT [2]: either greatly attenuated or abolished
Solubility relative to parent drug ([3]; vs propofol): 3000 fold
EC50 ([4]; EC50s (each well represents individual experiment)): 2.8e-08 M and 4.03e-08 M and 1.9e-08 M
calcium mobilization response (Fig. 3E and 3F dose-response) ([4]; 4.57e-8 M): 59.0909
calcium mobilization response (Fig. 3E and 3F dose-response) ([4]; 4.12e-7 M): 88.6023
Calcium mobilization response (Fig. 4D dose-response) ([4]; 4.12e-7 M): 88.6023
Potency at S83- vs L83-MRGPRX4 [4]: improved potency at S83-MRGPRX4
Activation of NP1–3 neuron populations [5]: few neurons were activated
